# Source: US10758534B2 (Vertex Pharmaceuticals Incorporated, priority 2014, dated 2020)
# Molecular target: T1, F508del (Homo sapiens, UniProt P13569, DEL508-508)
# T1 construct: expressed in transfected cells
# Assay: Protocol 2: FRET membrane potential optical assay (VIPR), identification of correction compounds
# Type: cell-based
# Conditions: F508del CFTR modulator activity; compounds of Table 1; read-out: EC30
# Outline: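 NIH3T3 mouse fibroblasts stably expressing F508del were treated with test compound for 16 hrs at 37° C. in serum-free medium; 27° C. incubation served as positive control. F508del was activated with 10 μM forskolin plus 20 μM genistein in Cl^−-free medium, and Cl^− efflux-driven depolarization was read by DiSBAC2(3)/CC2-DMPE FRET.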
# T1 sequence (P13569 with tags, fused parts or gaps DEL508-508): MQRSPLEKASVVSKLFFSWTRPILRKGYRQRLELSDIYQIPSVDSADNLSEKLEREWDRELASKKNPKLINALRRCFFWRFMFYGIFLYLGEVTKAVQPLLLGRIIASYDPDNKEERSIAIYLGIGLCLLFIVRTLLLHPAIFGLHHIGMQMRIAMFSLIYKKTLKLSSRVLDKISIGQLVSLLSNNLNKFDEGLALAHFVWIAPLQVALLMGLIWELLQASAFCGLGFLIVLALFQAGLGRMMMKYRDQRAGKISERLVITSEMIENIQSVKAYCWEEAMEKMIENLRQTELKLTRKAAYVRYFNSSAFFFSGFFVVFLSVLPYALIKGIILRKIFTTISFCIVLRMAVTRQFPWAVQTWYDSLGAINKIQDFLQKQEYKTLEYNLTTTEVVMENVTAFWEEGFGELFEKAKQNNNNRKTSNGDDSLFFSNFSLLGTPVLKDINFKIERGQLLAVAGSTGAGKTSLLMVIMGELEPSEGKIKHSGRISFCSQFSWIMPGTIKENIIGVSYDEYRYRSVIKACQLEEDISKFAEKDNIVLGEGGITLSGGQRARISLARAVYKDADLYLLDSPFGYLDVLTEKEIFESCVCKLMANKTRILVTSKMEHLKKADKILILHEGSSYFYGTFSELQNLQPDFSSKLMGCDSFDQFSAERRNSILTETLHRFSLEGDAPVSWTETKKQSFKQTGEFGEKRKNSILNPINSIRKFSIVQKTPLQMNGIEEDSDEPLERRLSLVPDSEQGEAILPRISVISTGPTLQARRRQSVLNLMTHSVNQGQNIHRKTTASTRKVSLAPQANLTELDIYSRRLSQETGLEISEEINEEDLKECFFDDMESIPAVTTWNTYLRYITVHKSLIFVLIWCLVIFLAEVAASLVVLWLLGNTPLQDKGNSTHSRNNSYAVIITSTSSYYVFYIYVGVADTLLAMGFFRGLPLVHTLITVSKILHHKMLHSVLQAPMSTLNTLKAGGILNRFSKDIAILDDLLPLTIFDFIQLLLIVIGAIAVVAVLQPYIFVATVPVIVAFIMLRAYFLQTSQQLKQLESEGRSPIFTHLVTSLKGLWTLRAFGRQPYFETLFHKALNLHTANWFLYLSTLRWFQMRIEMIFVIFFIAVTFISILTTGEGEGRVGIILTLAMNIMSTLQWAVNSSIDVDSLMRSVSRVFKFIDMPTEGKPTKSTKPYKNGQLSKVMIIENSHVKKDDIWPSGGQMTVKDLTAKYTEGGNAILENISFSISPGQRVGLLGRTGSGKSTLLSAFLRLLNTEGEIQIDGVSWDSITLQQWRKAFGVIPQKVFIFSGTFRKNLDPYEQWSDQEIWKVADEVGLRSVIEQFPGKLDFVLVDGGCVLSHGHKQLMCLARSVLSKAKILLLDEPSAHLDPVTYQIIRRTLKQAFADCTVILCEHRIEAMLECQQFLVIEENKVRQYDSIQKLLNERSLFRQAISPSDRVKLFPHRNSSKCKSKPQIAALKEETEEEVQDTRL
row,Structure (SMILES),EC30 [nM]
1,"COc1cccc(OC)c1Oc1cccc(S(=O)(=O)NC(=O)c2cccnc2N2CC(C)CC2(C)C)n1 (stereo not shown) [Compound 2309, N—[[6-(2,6-dimethoxyphenoxy)-2-pyridyl]sulfonyl]-2-(2,2,4-trimethylpyrrolidin-1-yl)pyridine-3-carboxamide]",< 3000
2,"COc1ccccc1CNc1cccc(S(=O)(=O)NC(=O)c2cccnc2N2CC(C)CC2(C)C)n1 (stereo not shown) [Compound 2310, N—[[6-[(2-methoxyphenyl)methylamino]-2-pyridyl]sulfonyl]-2-(2,2,4-trimethylpyrrolidin-1-yl)pyridine-3-carboxamide]",< 3000
3,"C[C@@H]1CN(c2nc(C3CCCOC3)ccc2C(=O)NS(=O)(=O)c2cccnc2N)C(C)(C)C1 (stereo partly drawn) [Compound 2311, N-[(2-amino-3-pyridyl)sulfonyl]-6-tetrahydropyran-3-yl-2-[(4S)-2,2,4-trimethylpyrrolidin-1-yl]pyridine-3-carboxamide]",< 3000
4,"CC1CN(c2ncc(-c3ccccc3Cl)cc2C(=O)NS(=O)(=O)c2cccc(N)n2)C(C)(C)C1 (stereo not shown) [Compound 2312, N-[(6-amino-2-pyridyl)sulfonyl]-5-(2-chlorophenyl)-2-(2,2,4-trimethylpyrrolidin-1-yl)pyridine-3-carboxamide]",< 3000
5,"Cc1cc(OC2CCCC2)cc(-c2cnc(N3CC(C)CC3(C)C)c(C(=O)NS(=O)(=O)c3cccc(N)n3)c2)c1 (stereo not shown) [Compound 2313, N-[(6-amino-2-pyridyl)sulfonyl]-5-[3-(cyclopentoxy)-5-methyl-phenyl]-2-(2,2,4-trimethylpyrrolidin-1-yl)pyridine-3-carboxamide]",< 3000
6,"CC1CN(c2ncccc2C(=O)NS(=O)(=O)c2cccc(Oc3ccc(N)cc3)n2)C(C)(C)C1 (stereo not shown) [Compound 2314, N—[[6-(4-aminophenoxy)-2-pyridyl]sulfonyl]-2-(2,2,4-trimethylpyrrolidin-1-yl)pyridine-3-carboxamide]",3000 to 10000
7,"C[C@@H]1CN(c2nc([C@H]3CC[C@@H](C(F)(F)F)CC3)ccc2C(=O)NS(=O)(=O)c2ccc[nH]c2=O)C(C)(C)C1 [Compound 2315, N-[(2-oxo-1H-pyridin-3-yl)sulfonyl]-6-[4-(trifluoromethyl)cyclohexyl]-2-[(4S)-2,2,4-trimethylpyrrolidin-1-yl]pyridine-3-carboxamide]",< 3000
8,"CC1CN(c2ncccc2C(=O)NS(=O)(=O)c2cccc(Nc3ccc(F)c(C#N)c3)n2)C(C)(C)C1 (stereo not shown) [Compound 2316, N—[[6-(3-cyano-4-fluoro-anilino)-2-pyridyl]sulfonyl]-2-(2,2,4-trimethylpyrrolidin-1-yl)pyridine-3-carboxamide]",< 3000
9,"CC1CN(c2ncccc2C(=O)NS(=O)(=O)c2cccc(OC3CC=CC3)n2)C(C)(C)C1 (stereo not shown) [Compound 2317, N-[(6-cyclopent-3-en-1-yloxy-2-pyridyl)sulfonyl]-2-(2,2,4-trimethylpyrrolidin-1-yl)pyridine-3-carboxamide]",< 3000
10,"CC1CN(c2ncccc2C(=O)NS(=O)(=O)c2cccc(N[C@H](C)C(C)C)n2)C(C)(C)C1 (stereo partly drawn) [Compound 2318, N—[[6-[[(1R)-1,2-dimethylpropyl]amino]-2-pyridyl]sulfonyl]-2-(2,2,4-trimethylpyrrolidin-1-yl)pyridine-3-carboxamide]",< 3000
11,"C[C@@H]1CN(c2nc(-c3ccc(N(C)C)nc3)ccc2C(=O)NS(=O)(=O)c2cccnc2N)C(C)(C)C1 [Compound 2319, N-[(2-amino-3-pyridyl)sulfonyl]-6-[6-(dimethylamino)-3-pyridyl]-2-[(4S)-2,2,4-trimethylpyrrolidin-1-yl]pyridine-3-carboxamide]",3000 to 10000
12,"Cc1cccc(Oc2cccc(S(=O)(=O)NC(=O)c3cccnc3N3CC(C)CC3(C)C)n2)c1 (stereo not shown) [Compound 2320, N—[[6-(3-methylphenoxy)-2-pyridyl]sulfonyl]-2-(2,2,4-trimethylpyrrolidin-1-yl)pyridine-3-carboxamide]",< 3000
13,"CC1CN(c2ncccc2C(=O)NS(=O)(=O)c2cccc(N3Cc4ccccc4C[C@H]3C(=O)O)n2)C(C)(C)C1 (stereo partly drawn) [Compound 2321, (3S)-2-[6-[[2-(2,2,4-trimethylpyrrolidin-1-yl)pyridine-3-carbonyl]sulfamoyl]-2-pyridyl]-3,4-dihydro-1H-isoquinoline-3-carboxylic acid]",3000 to 10000
14,"Cc1cc(-c2cnc(N3CC(C)CC3(C)C)c(C(=O)NS(=O)(=O)c3cccc(N)n3)c2)cc(C(C)(C)C)c1 (stereo not shown) [Compound 2322, N-[(6-amino-2-pyridyl)sulfonyl]-5-(3-tert-butyl-5-methyl-phenyl)-2-(2,2,4-trimethylpyrrolidin-1-yl)pyridine-3-carboxamide]",< 3000
15,"CC(C)COc1cc(F)cc(-c2ccc(C(=O)NS(=O)(=O)c3cccc(N)n3)c(N3CCC(O)CC3)n2)c1 [Compound 2323, N-[(6-amino-2-pyridyl)sulfonyl]-6-(3-fluoro-5-isobutoxy-phenyl)-2-(4-hydroxy-1-piperidyl)pyridine-3-carboxamide]",3000 to 10000
16,"CC1CN(c2ncccc2C(=O)NS(=O)(=O)c2cccc(N3CCOC(C)C3)n2)C(C)(C)C1 (stereo not shown) [Compound 2324, N—[[6-(2-methylmorpholin-4-yl)-2-pyridyl]sulfonyl]-2-(2,2,4-trimethylpyrrolidin-1-yl)pyridine-3-carboxamide]",3000 to 10000
17,"CCOCCOCCOc1ccn(-c2ccc(C(=O)NS(=O)(=O)c3cccnc3N)c(N3C[C@@H](C)CC3(C)C)n2)n1 [Compound 2326, N-[(2-amino-3-pyridyl)sulfonyl]-6-[3-[2-(2-ethoxyethoxy)ethoxy]pyrazol-1-yl]-2-[(4S)-2,2,4-trimethylpyrrolidin-1-yl]pyridine-3-carboxamide]",< 3000
18,"Cc1cccc(C)c1Oc1nc(-c2cc(F)cc(OCC(C)C)c2)ccc1C(=O)NS(=O)(=O)c1ccc(O)c(N)n1 [Compound 2331, N-[(6-amino-5-hydroxy-2-pyridyl)sulfonyl]-2-(2,6-dimethylphenoxy)-6-(3-fluoro-5-isobutoxy-phenyl)pyridine-3-carboxamide]",< 3000

# The next lines start with the values.
row,EC30 [nM],Structure (SMILES)
1,3000 to 10000,"COc1ccc(-c2ccc(C(=O)NS(=O)(=O)N3CC[C@H](N)C3)c(N3C[C@@H](C)CC3(C)C)n2)cc1 [Compound 2327, N-[(3S)-3-aminopyrrolidin-1-yl]sulfonyl-6-(4-methoxyphenyl)-2-[(4S)-2,2,4-trimethylpyrrolidin-1-yl]pyridine-3-carboxamide]"
2,3000 to 10000,"CC(=O)c1ccc(Nc2cccc(S(=O)(=O)NC(=O)c3cccnc3N3CC(C)CC3(C)C)n2)cc1 (stereo not shown) [Compound 2328, N—[[6-(4-acetylanilino)-2-pyridyl]sulfonyl]-2-(2,2,4-trimethylpyrrolidin-1-yl)pyridine-3-carboxamide]"
3,< 3000,"CC1CN(c2ncccc2C(=O)NS(=O)(=O)c2cccc(OCCC3CCOCC3)n2)C(C)(C)C1 (stereo not shown) [Compound 2329, N—[[6-(2-tetrahydropyran-4-ylethoxy)-2-pyridyl]sulfonyl]-2-(2,2,4-trimethylpyrrolidin-1-yl)pyridine-3-carboxamide]"
4,< 3000,"CC1CCN(c2cccc(S(=O)(=O)NC(=O)c3cccnc3N3CC(C)CC3(C)C)n2)CC1 (stereo not shown) [Compound 2330, N—[[6-(4-methyl-1-piperidyl)-2-pyridyl]sulfonyl]-2-(2,2,4-trimethylpyrrolidin-1-yl)pyridine-3-carboxamide]"
5,< 3000,"CC1CN(c2ncccc2C(=O)NS(=O)(=O)c2cccc(Oc3cccc(F)c3)n2)C(C)(C)C1 (stereo not shown) [Compound 2332, N—[[6-(3-fluorophenoxy)-2-pyridyl]sulfonyl]-2-(2,2,4-trimethylpyrrolidin-1-yl)pyridine-3-carboxamide]"
6,3000 to 10000,"CC1CN(c2ncccc2C(=O)NS(=O)(=O)c2cccc(Oc3cccc4cccnc34)n2)C(C)(C)C1 (stereo not shown) [Compound 2333, N—[[6-(8-quinolyloxy)-2-pyridyl]sulfonyl]-2-(2,2,4-trimethylpyrrolidin-1-yl)pyridine-3-carboxamide]"
7,< 3000,"COc1cc(F)c(F)cc1-c1ccc(C(=O)NS(=O)(=O)c2cccnc2N)c(N2C[C@@H](C)CC2(C)C)n1 [Compound 2334, N-[(2-amino-3-pyridyl)sulfonyl]-6-(4,5-difluoro-2-methoxy-phenyl)-2-[(4S)-2,2,4-trimethylpyrrolidin-1-yl]pyridine-3-carboxamide]"
8,3000 to 10000,"CC1CN(c2ncccc2C(=O)NS(=O)(=O)c2cccc(NCCCCNC(=O)OC(C)(C)C)n2)C(C)(C)C1 (stereo not shown) [Compound 2335, tert-butyl N—[4-[[6-[[2-(2,2,4-trimethylpyrrolidin-1-yl)pyridine-3-carbonyl]sulfamoyl]-2-pyridyl]amino]butyl]carbamate]"
9,< 3000,"CC1CCC(Oc2cccc(S(=O)(=O)NC(=O)c3cccnc3N3CC(C)CC3(C)C)n2)CC1 (stereo not shown) [Compound 2336, N—[[6-(4-methylcyclohexoxy)-2-pyridyl]sulfonyl]-2-(2,2,4-trimethylpyrrolidin-1-yl)pyridine-3-carboxamide]"
10,< 3000,"CC1CN(c2ncc(-c3ccc(C(F)(F)F)cc3)cc2C(=O)NS(=O)(=O)c2cccc(N)n2)C(C)(C)C1 (stereo not shown) [Compound 2337, N-[(6-amino-2-pyridyl)sulfonyl]-5-[4-(trifluoromethyl)phenyl]-2-(2,2,4-trimethylpyrrolidin-1-yl)pyridine-3-carboxamide]"
11,< 3000,"CC1CN(c2ncccc2C(=O)NS(=O)(=O)c2cccc(Oc3cccc4[nH]ccc34)n2)C(C)(C)C1 (stereo not shown) [Compound 2338, N—[[6-(1H-indol-4-yloxy)-2-pyridyl]sulfonyl]-2-(2,2,4-trimethylpyrrolidin-1-yl)pyridine-3-carboxamide]"
12,< 3000,"Cc1cccc(-c2ccc(C(=O)NS(=O)(=O)N3CC[C@H](N)C3)c(N3C[C@@H](C)CC3(C)C)n2)c1 [Compound 2339, N-[(3S)-3-aminopyrrolidin-1-yl]sulfonyl-6-(m-tolyl)-2-[(4S)-2,2,4-trimethylpyrrolidin-1-yl]pyridine-3-carboxamide]"
13,< 3000,"CC1CN(c2ncccc2C(=O)NS(=O)(=O)c2cccc(N3CC4CCCC4C3)n2)C(C)(C)C1 (stereo not shown) [Compound 2340, N—[[6-(3,3a,4,5,6,6a-hexahydro-1H-cyclopenta[c]pyrrol-2-yl)-2-pyridyl]sulfonyl]-2-(2,2,4-trimethylpyrrolidin-1-yl)pyridine-3-carboxamide]"
